Legend:
Assay in all cases: relative viability (nuclei count vs DMSO), 5 days (fraction); higher = more cells survive
17-AAG + Linsitinib = compound: C=CCNC1=C2C[C@@H](C)C[C@H](OC)[C@H](O)[C@@H](C)/C=C(\C)[C@H](OC(N)=O)[C@@H](OC)/C=C\C=C(/C)C(=O)NC(=CC1=O)C2=O [17-AAG] + C[C@]1(O)C[C@@H](c2nc(-c3ccc4ccc(-c5ccccc5)nc4c3)c3c(N)nccn32)C1 [Linsitinib] (partner 1 µM)
Procedure, shortened: (§1)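 Cells from lung cancer lines were seeded into 1536-well plates and, one day later, dosed by pin tool. Treatments were either a single drug or a fixed dose of an anchor drug with five library-drug doses (not always all listed) in √10 steps. After 5 days, nuclei were stained in a one-step fixation (final 0.05% Triton X-100, 1% formaldehyde, 1 ug/ml Hoechst) and counted on 4× images, and relative viability is the treated-to-vehicle nuclei ratio, as the median of duplicate plates.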

17-AAG + Lapatinib = compound: C=CCNC1=C2C[C@@H](C)C[C@H](OC)[C@H](O)[C@@H](C)/C=C(\C)[C@H](OC(N)=O)[C@@H](OC)/C=C\C=C(/C)C(=O)NC(=CC1=O)C2=O [17-AAG] + CS(=O)(=O)CCNCc1ccc(-c2ccc3ncnc(Nc4ccc(OCc5cccc(F)c5)c(Cl)c4)c3c2)o1 [Lapatinib] (partner 2 µM)
Procedure, shortened: as §1

17-AAG + Alpelisib = compound: C=CCNC1=C2C[C@@H](C)C[C@H](OC)[C@H](O)[C@@H](C)/C=C(\C)[C@H](OC(N)=O)[C@@H](OC)/C=C\C=C(/C)C(=O)NC(=CC1=O)C2=O [17-AAG] + Cc1nc(NC(=O)N2CCC[C@H]2C(N)=O)sc1-c1ccnc(C(C)(C)C(F)(F)F)c1 [Alpelisib] (partner 2 µM)
Procedure, shortened: as §1

17-AAG + OSI-027 = compound: C=CCNC1=C2C[C@@H](C)C[C@H](OC)[C@H](O)[C@@H](C)/C=C(\C)[C@H](OC(N)=O)[C@@H](OC)/C=C\C=C(/C)C(=O)NC(=CC1=O)C2=O [17-AAG] + COc1cccc2cc(-c3nc([C@H]4CC[C@H](C(=O)O)CC4)n4ncnc(N)c34)[nH]c12 [OSI-027] (partner 0.5 µM)
Procedure, shortened: as §1

Cell Line | relative viability (17-AAG + Linsitinib; first compound 0.00128 µM) | relative viability (17-AAG + Linsitinib; first compound 0.004048 µM) | relative viability (17-AAG + Linsitinib; first compound 0.0128 µM) | relative viability (17-AAG + Linsitinib; first compound 0.04048 µM) | relative viability (17-AAG + Linsitinib; first compound 0.128 µM) | relative viability (17-AAG + Lapatinib; first compound 0.00128 µM) | relative viability (17-AAG + Lapatinib; first compound 0.004048 µM) | relative viability (17-AAG + Lapatinib; first compound 0.0128 µM) | relative viability (17-AAG + Lapatinib; first compound 0.04048 µM) | relative viability (17-AAG + Lapatinib; first compound 0.128 µM) | relative viability (17-AAG + Alpelisib; first compound 0.00128 µM) | relative viability (17-AAG + Alpelisib; first compound 0.004048 µM) | relative viability (17-AAG + Alpelisib; first compound 0.0128 µM) | relative viability (17-AAG + Alpelisib; first compound 0.04048 µM) | relative viability (17-AAG + Alpelisib; first compound 0.128 µM) | relative viability (17-AAG + OSI-027; first compound 0.00128 µM) | relative viability (17-AAG + OSI-027; first compound 0.004048 µM) | relative viability (17-AAG + OSI-027; first compound 0.0128 µM) | relative viability (17-AAG + OSI-027; first compound 0.04048 µM) | relative viability (17-AAG + OSI-027; first compound 0.128 µM)
NCI-H1395 | 1.12 | 1.1 | 0.705 | 0.469 | 0.383 | 0.903 | 1.12 | 0.485 | 0.406 | 0.417 | 1.02 | 0.967 | 0.804 | 0.395 | 0.388 | 0.634 | 0.619 | 0.467 | 0.377 | 0.277
NCI-H1437 | 0.995 | 0.788 | 0.787 | 0.128 | 0.112 | 0.825 | 0.7 | 0.247 | 0.151 | 0.0848 | 0.959 | 0.929 | 0.88 | 0.107 | 0.122 | 0.877 | 0.836 | 0.656 | 0.186 | 0.123
NCI-H1563 | 1.17 | 0.952 | 0.668 | 0.623 | 0.622 | 0.878 | 0.729 | 0.567 | 0.606 | 0.618 | 0.964 | 0.853 | 0.616 | 0.591 | 0.514 | 0.755 | 0.647 | 0.564 | 0.509 | 0.481
NCI-H1651 | 1.09 | 1.01 | 0.975 | 0.227 | 0.177 | 0.841 | 0.874 | 0.519 | 0.168 | 0.146 | 0.972 | 0.895 | 0.902 | 0.27 | 0.157 | 0.749 | 0.685 | 0.683 | 0.395 | 0.143
NCI-H1666 | 0.764 | 0.554 | 0.27 | 0.253 | 0.224 | 0.682 | 0.595 | 0.234 | 0.261 | 0.219 | 0.949 | 0.713 | 0.299 | 0.216 | 0.214 | 0.875 | 0.782 | 0.52 | 0.395 | 0.335
NCI-H1734 | 0.87 | 0.838 | 0.878 | 0.308 | 0.18 | 0.952 | 0.934 | 0.764 | 0.579 | 0.141 | 0.708 | 0.759 | 0.716 | 0.289 | 0.16 | 0.602 | 0.709 | 0.415 | 0.263 | 0.144
NCI-H1755 | 1.03 | 1.01 | 0.934 | 0.825 | 0.39 | 1.06 | 0.972 | 0.772 | 0.27 | 0.165 | 0.957 | 0.945 | 0.891 | 0.652 | 0.254 | 0.773 | 0.69 | 0.602 | 0.197 | 0.114
NCI-H1792 | 0.481 | 0.619 | 0.449 | 0.391 | 0.372 | 0.783 | 1.02 | 0.704 | 0.638 | 0.115 | 0.713 | 0.64 | 0.594 | 0.441 | 0.306 | 0.691 | 0.765 | 0.619 | 0.574 | 0.273
NCI-H1793 | 0.824 | 0.712 | 0.51 | 0.236 | 0.153 | 0.447 | 0.434 | 0.35 | 0.217 | 0.156 | 0.846 | 0.612 | 0.356 | 0.198 | 0.167 | 0.252 | 0.234 | 0.156 | 0.124 | 0.125
NCI-H1915 | 1.05 | 1.08 | 1.14 | 1.07 | 0.83 | 0.883 | 1.06 | 0.894 | 0.571 | 0.0701 | 1.05 | 1.06 | 1.04 | 1.02 | 0.458 | 0.606 | 0.605 | 0.482 | 0.088 | 0.0931
NCI-H1944 | 1.25 | 1.22 | 1.16 | 0.872 | 0.319 | 0.795 | 0.889 | 0.646 | 0.482 | 0.169 | 0.883 | 0.88 | 0.85 | 0.682 | 0.281 | 0.406 | 0.403 | 0.321 | 0.184 | 0.164
NCI-H1975 | 1.03 | 0.725 | 0.31 | 0.164 | 0.139 | 0.872 | 0.739 | 0.256 | 0.166 | 0.11 | 0.583 | 0.365 | 0.147 | 0.139 | 0.124 | 0.654 | 0.446 | 0.133 | 0.147 | 0.115
NCI-H1993 | 0.764 | 0.718 | 0.711 | 0.573 | 0.5 | 0.767 | 0.76 | 0.627 | 0.45 | 0.451 | 0.722 | 0.657 | 0.658 | 0.528 | 0.434 | 0.586 | 0.636 | 0.593 | 0.394 | 0.41
NCI-H2009 | 1.14 | 1.2 | 1.01 | 0.775 | 0.328 | 1.16 | 0.954 | 0.816 | 0.424 | 0.0895 | 1.13 | 1.19 | 1.13 | 0.853 | 0.366 | 0.635 | 0.654 | 0.618 | 0.376 | 0.0937
NCI-H2023 | 0.595 | 0.501 | 0.103 | 0.117 | 0.0914 | 0.872 | 0.675 | 0.0806 | 0.106 | 0.0805 | 0.582 | 0.66 | 0.273 | 0.0878 | 0.0906 | 0.328 | 0.221 | 0.0577 | 0.0589 | 0.0633

Reference: the supplement of paper PMC10307832
